# “And” between values parts separate entries of the source, which are not always exact repeats. Equal entries are not always repeated. Ends that are not written are not given here.
# Columns and labels:
# [1] = test system: HTLV-1 positive serum samples; assay: immunoreactivity screening of eight synthesized peptides A-H with HTLV-1 positive sera; assay type: binding, human
# Excerpt: The four peptides were selected from among eight different synthesized peptides designated A-H which correspond to the HTLV-1 envelope glycoprotein. These peptides were selected using various criteria similar to the selection of useful HIV-1 or HIV-2 peptides, e.g. proximity to or containing a cysteine residue (location of cysteine in similar proteins from related organisms being relatively invariant) and proximity to glycosylation sites. Although such criteria for selection of peptides can rule out potentially nonuseful peptides and indicate potentially useful peptides, further testing was required to identify which of the eight peptides would display immunoreactivity to HTLV-1 positive serum samples. The eight peptides were synthesized in the priority A through H with the […] believed to be least antigenic based on the above-criteria.
# antibodies to HTLV-1 [2] = assay: ELISA immunologic reactivity of peptides gpAHTLV-1, gpBHTLV-1 and gpCHTLV-1 with human sera (Table 2); assay type: binding; conditions: for Mean O.D.405 of Negative Sera / cut off = Mean O.D.405 of Negative Sera + 6 × S.D.: negative sera of Table 2; for confirmed positive HTLV-1 serum samples reacted with peptide: reactive/tested, 6 HTLV-1 positive sera
# Protocol: (§1) Polylysine at a concentration of 1 mg/ml was added to the microtiter plates and allowed to incubate for 30 minutes. The polylysine was then discarded and peptide gpAHTLV-1 was added to the wells in a concentration of 10 to 100 μg/ml for coating. After the peptide incubated in the well for a length of time sufficient to allow the peptide to become bonded to the well, the peptide solution was removed and a solution of glutaraldehyde, which stabilizes the peptide attachment to the wells, was added for 15 minutes. The glutaraldehyde solution was then removed, the wells washed with buffer, and a mixture of glycine and bovine serum albumin (BSA) was added which served to block unbound sites in the wells and minimize spurious reactions during the ELISA test per se. After a final washing step, the plates were ready to use.
# (§2) A convenient variation of known ELISA methods was used with the microtiter plates prepared as above. Serum samples from individuals which had been diluted 1:50 in PBS (phosphate buffered saline) containing 0.05% polyoxyethylenesorbitan monolaurate (Tween 20) and 1% BSA were added to each well and allowed to incubate for 90 minutes at 37° C. in a humidified atmosphere. The diluted serum samples were then removed from the plates and the wells washed three times with PBS containing 0.05% Tween 20. A conjugated anti-human immunoglobulin (Ig) antibody was then added to the wells and allowed to incubate for 90 minutes. The conjugated antibody was produced in a goat or rabbit and was specific for human IgG, IgM, immunoglobulin light chains, or combinations thereof. Preferably, alkaline-phophatase conjugated anti-human IgG (from Dakopatts) diluted 1:500 for use in PBS containing 0.05% Tween 20 and 1% BSA was used in the ELISA. After the conjugate had incubated a sufficient length of time to react with bound human antibodies, the plates were washed three times as above. In order to detect antibodies to HTLV-1 in the human serum that react with the peptide gpAHTLV-1 used as the antigen, (i.e. positive reactions), a chromogenic substrate, alkaline phosphatase substrate (Sigma Cat. No. 104 tablets) dissolved in a Na carbonate/MgCl2 buffer and adjusted to a concentration of 1 μg/ml which is cleaved by the alkaline phosphatase enzyme attached to the anti-human Ig antibody to yield a colored product, was added. After incubation for approximately 40 minutes at room temperature, positive reactions indicated the presence of antibodies in the sample reactive with the antigen. A yellow to orange to reddish-brown color in each well indicating a positive reaction, was read in a spectrophotometer at 405 nm to quantify the reaction. Spectrophotometric readings were adjusted to correct for background reactions.
# Peptides gpAHTLV-1, gpBHTLV-1, gpCHTLV-1, synthesized as described in Example 1, were run in parallel ELISA tests as described in Example 2 against 6 serum samples positive for antibodies to HTLV-1, 8 serum samples positive for antibodies to HIV-1 and 10 blood donor sera negative for HIV-1/HIV-2.
# [3] = storage stability of peptide-coated microtiter plates; assay type: physicochemical; conditions: peptide-coated microtiter plates stored for several months
# Protocol: as §1
# antibodies to HTLV-1 [4] = assay: ELISA reactivity of gpHHTLV-1 with confirmed positive and true negative sera/CSF (Table 3); assay type: binding, human
# Protocol: as §1, §2
# Peptide gpHHTLV-1 having the amino acid sequence: […]OH was synthesized as described in Example 1 and used in an ELISA test as described in Example 2 to measure its immunologic reactivity against confirmed Japanese HTLV-sera and sera from U.S.A. and Europe from patients with Adult T-cell Leukemia Tropical Spastic Paraparesis (TSP) and cerebrospinal fluids (CSF).
# antibodies to HTLV-1 [5] = assay: ELISA absorbance on Japanese HTLV-1 sera using gpHHTLV-1 (Table 4); assay type: binding, human; conditions: serum 1248, negative control, Western blot -; diluted 1/50
# Protocol: as §1
# (§3) A convenient variation of known ELISA methods was used with the microtiter plates prepared as above. […] A yellow to orange to reddish-brown color in each well indicating a positive reaction, was read in a spectrophotometer at 405 nm to quantify the reaction. Spectrophotometric readings were adjusted to correct for background reactions.
# Absorbance values on Japanese HTLV-1 sera were measured in ELISA using gpHHTLV-1 as well as Du-Pont HTLV-1 ELISA and Western blot. […]
# antibodies to HTLV-1 [6] = assay: ELISA absorbance on sera and CSF from patients with ATL and TSP using gpHHTLV-1 (Table 5); assay type: binding, human; conditions: neg CSF 8, 19, 21; diluted 1/20
# Protocol: as §1, §3
# Absorbance values on sera and CSF from patients with ATL and TSP were measured in ELISA using gpHHTLV-1 sera diluted 1/50, CSF sera was diluted 1/20.
# HTLV-1 patient sera = conditions: reactive/tested; Palker et al., 1986; cited from earlier work
# [7] = test system: sera from HTLV-1 positive patients; conditions: reactive/tested; Copeland et al., 1986; cited from earlier work
substance,measurement,setting,value
"X-Trp-Thr-His-Cys-Phe-Asp-Pro-Gln-Ile-Gln--Ala-Ile-Val-Ser-Ser-Pro-Cys-His-Asn-Ile-Leu-Y-Z (WTHCFDPQIQAIVSSPCHNIL; not fully specified (N-terminus, C-terminus); cysteine pairing not given here; also: end groups X, Y, Z left open in the general formula) [gpBHTLV-1]",usefulness for diagnosis of HTLV-1 infection (in words),[1],useful for diagnosis of HTLV-1 infection
same,Mean O.D.405 of Negative Sera,antibodies to HTLV-1 [2],0.088 O.D.405
same,cut off = Mean O.D.405 of Negative Sera + 6 × S.D.,antibodies to HTLV-1 [2],0.298 O.D.405
same,confirmed positive HTLV-1 serum samples reacted with peptide,antibodies to HTLV-1 [2],5/6
Gly-Leu-Asp-Leu-Leu-Phe-Trp-Glu-Gln-Gly-Gly-Leu-Cys-Lys-Ala-Leu-Gln-Glu-Gln-Cys-Arg-Phe-Pro-Asn-Cys-OH (GLDLLFWEQGGLCKALQEQCRFPNC-OH; cysteine pairing not given here) [gpAHTLV-1],antigenic activity of coated peptide after storage (in words),[3],without any decrease in antigenic activity
same,usefulness for diagnosis of HTLV-1 infection (in words),[1],useful for diagnosis of HTLV-1 infection
same,Mean O.D.405 of Negative Sera,antibodies to HTLV-1 [2],0.124 O.D.405
same,cut off = Mean O.D.405 of Negative Sera + 6 × S.D.,antibodies to HTLV-1 [2],0.490 O.D.405
same,confirmed positive HTLV-1 serum samples reacted with peptide,antibodies to HTLV-1 [2],6/6
"X-Tyr-Thr-Cys-Ile-Val-Cys-Ile-Asp-Arg-Ala-Ser-Leu-Ser-Thr-Trp-His-Val-Leu- Tyr-Ser-Pro-Y-Z (YTCIVCIDRASLSTWHVLYSP; not fully specified (N-terminus, C-terminus); cysteine pairing not given here; also: end groups X, Y, Z left open in the general formula) [gpCHTLV-1]",usefulness for diagnosis of HTLV-1 infection (in words),[1],useful for diagnosis of HTLV-1 infection
same,Mean O.D.405 of Negative Sera,antibodies to HTLV-1 [2],0.116 O.D.405
same,cut off = Mean O.D.405 of Negative Sera + 6 × S.D.,antibodies to HTLV-1 [2],0.368 O.D.405
same,confirmed positive HTLV-1 serum samples reacted with peptide,antibodies to HTLV-1 [2],5/6
Leu-Asn-Thr-Glu-Pro-Ser-Gln-Leu-Pro-Pro-Thr-Ala-Pro-Pro-Leu-Leu-Pro-His-Ser-Asn-Leu-Asp-His-Ile-Cys-OH (LNTEPSQLPPTAPPLLPHSNLDHIC-OH) [gpHHTLV-1],Positive in ELISA,"antibodies to HTLV-1 [4]; ATL CSF, positive/tested",1/1
same,Positive in ELISA (percent),antibodies to HTLV-1 [4]; Japanese HTLV-1 sera,69%
same,Positive in ELISA,"antibodies to HTLV-1 [4]; Japanese HTLV-1 sera, positive/tested",22/32
same,Positive in ELISA,"antibodies to HTLV-1 [4]; TSP CSF, positive/tested",4/4
same,Positive in ELISA,"antibodies to HTLV-1 [4]; TSP sera, positive/tested",4/4
same,known positive sera confirmed HTLV-1 positive (in words),antibodies to HTLV-1 [4]; Table 3 as summarised in text,all known positive sera were confirmed HTLV-1 positive
same,Positive in ELISA,antibodies to HTLV-1 [4]; true negative: 4 EB virus IgM positive sera,0/4
same,Positive in ELISA,antibodies to HTLV-1 [4]; true negative: 4 Leukemia patients sera,0/4
same,Positive in ELISA,antibodies to HTLV-1 [4]; true negative: 4 Rheumatoid factor positive sera,0/4
same,Positive in ELISA,antibodies to HTLV-1 [4]; true negative: 4 Transplant recipients sera,0/4
same,Positive in ELISA,antibodies to HTLV-1 [4]; true negative: 8 CSF (aseptic meningitis),0/8
same,Positive in ELISA,antibodies to HTLV-1 [4]; true negative: 8 HIV-2 positive sera,0/8
same,Positive in ELISA,antibodies to HTLV-1 [4]; true negative: 28 blood donor sera,0/28
same,Positive in ELISA,antibodies to HTLV-1 [4]; true negative: 30 HIV-1 positive sera,0/30
same,Absorbance values in gpHHTLV-1 ELISA,antibodies to HTLV-1 [5],0.109
same,usefulness for diagnosis of HTLV-1 infection (in words),[1],useful for diagnosis of HTLV-1 infection
same,gpHHTLV-1 ELISA absorbance,antibodies to HTLV-1 [6],0.033 and 0.039 and 0.056
PYVEPTAPQVL [SP-71],HTLV-1 patient sera reacting in RIA,HTLV-1 patient sera,8/9
Pro-Pro-Phe-Ser-Leu-Ser-Pro-Val-Pro-Thr-Leu-NH2 (PPFSLSPVPTL-NH2) [SP-70],sera from HTLV-1 positive patients reacting,[7],4/12
